According to the NIST ThermoML archive (doi:10.1021/je500395f):

Details: Fluid (supercritical or subcritical phases), Coaxial cylinder method

CCC [propane]
Details	thermal conductivity [W/m/K]
370.45 K, 3452 kPa	0.03558
370.45 K, 3487 kPa	0.0359
370.45 K, 3770 kPa	0.03805
370.45 K, 3856 kPa	0.03938
370.45 K, 3986 kPa	0.04204
370.45 K, 4042 kPa	0.04385
370.45 K, 4105 kPa	0.04623
370.45 K, 4170 kPa	0.05102
370.45 K, 4190 kPa	0.05329
370.45 K, 4200 kPa	0.055
370.45 K, 4205 kPa	0.05577
370.45 K, 4217 kPa	0.05902
370.45 K, 4224 kPa	0.06133
370.45 K, 4227 kPa	0.06249
370.45 K, 4232 kPa	0.06383
370.45 K, 4241 kPa	0.06723
370.45 K, 4244 kPa	0.06856
370.45 K, 4245 kPa	0.06879
370.45 K, 4250 kPa	0.07121
370.45 K, 4255 kPa	0.0743
370.45 K, 4260 kPa	0.0774
370.45 K, 4265 kPa	0.08106
370.45 K, 4270 kPa	0.08804
370.45 K, 4275 kPa	0.09622
370.45 K, 4280 kPa	0.1118
370.45 K, 4285 kPa	0.1252
370.45 K, 4290 kPa	0.1423
370.45 K, 4295 kPa	0.156
370.45 K, 4300 kPa	0.1452
370.45 K, 4305 kPa	0.1291
370.45 K, 4310 kPa	0.1181
370.45 K, 4315 kPa	0.1061
370.45 K, 4320 kPa	0.101
370.45 K, 4325 kPa	0.09628
370.45 K, 4330 kPa	0.09201
370.45 K, 4335 kPa	0.08809
370.45 K, 4340 kPa	0.08122
370.45 K, 4345 kPa	0.07814
370.45 K, 4350 kPa	0.07669
370.45 K, 4355 kPa	0.07528
370.45 K, 4360 kPa	0.07393
370.45 K, 4377 kPa	0.07217
370.45 K, 4400 kPa	0.07099
370.45 K, 4420 kPa	0.07014
370.45 K, 4560 kPa	0.06814
370.45 K, 4580 kPa	0.06769
370.45 K, 4800 kPa	0.06654
370.45 K, 5000 kPa	0.06717
370.45 K, 5500 kPa	0.06784
370.45 K, 5550 kPa	0.06791
370.45 K, 5760 kPa	0.06812
370.45 K, 6000 kPa	0.06874
370.45 K, 6500 kPa	0.06997
370.45 K, 7000 kPa	0.07091
370.45 K, 7500 kPa	0.07178
370.45 K, 8000 kPa	0.07277
370.45 K, 8500 kPa	0.07381
370.45 K, 9000 kPa	0.07421
370.45 K, 9500 kPa	0.07545
370.45 K, 10000 kPa	0.07572
370.45 K, 10500 kPa	0.07624
370.45 K, 11000 kPa	0.07677
370.45 K, 11200 kPa	0.07735
370.45 K, 11300 kPa	0.07645
370.45 K, 15100 kPa	0.08094
371.05 K, 2710 kPa	0.03205
371.05 K, 3100 kPa	0.03344
371.05 K, 3375 kPa	0.03463
371.05 K, 3655 kPa	0.03745
371.05 K, 3900 kPa	0.04056
371.05 K, 4095 kPa	0.04417
371.05 K, 4155 kPa	0.04633
371.05 K, 4215 kPa	0.04915
371.05 K, 4235 kPa	0.0519
371.05 K, 4252 kPa	0.05394
371.05 K, 4265 kPa	0.05669
371.05 K, 4276 kPa	0.05854
371.05 K, 4284 kPa	0.06121
371.05 K, 4289 kPa	0.06357
371.05 K, 4295 kPa	0.06602
371.05 K, 4301 kPa	0.06867
371.05 K, 4308 kPa	0.07332
371.05 K, 4313 kPa	0.07659
371.05 K, 4318 kPa	0.08141
371.05 K, 4319 kPa	0.08406
371.05 K, 4322 kPa	0.08836
371.05 K, 4324 kPa	0.09107
371.05 K, 4325 kPa	0.09395
371.05 K, 4326 kPa	0.09568
371.05 K, 4328 kPa	0.09934
371.05 K, 4329 kPa	0.1013
371.05 K, 4331 kPa	0.1054
371.05 K, 4332 kPa	0.1075
371.05 K, 4334 kPa	0.1104
371.05 K, 4336 kPa	0.114
371.05 K, 4337 kPa	0.1159
371.05 K, 4338 kPa	0.1172
371.05 K, 4339 kPa	0.1178
371.05 K, 4340 kPa	0.1185
371.05 K, 4342 kPa	0.1192
371.05 K, 4343 kPa	0.1192
371.05 K, 4344 kPa	0.1192
371.05 K, 4345 kPa	0.1185
371.05 K, 4346 kPa	0.1178
371.05 K, 4347 kPa	0.1159
371.05 K, 4349 kPa	0.1121
371.05 K, 4351 kPa	0.1081
371.05 K, 4354 kPa	0.1028
371.05 K, 4356 kPa	0.09934
371.05 K, 4358 kPa	0.09657
371.05 K, 4360 kPa	0.09395
371.05 K, 4361 kPa	0.09311
371.05 K, 4365 kPa	0.08989
371.05 K, 4367 kPa	0.08836
371.05 K, 4370 kPa	0.08616
371.05 K, 4375 kPa	0.08406
371.05 K, 4383 kPa	0.08141
371.05 K, 4387 kPa	0.08015
371.05 K, 4392 kPa	0.07865
371.05 K, 4396 kPa	0.07776
371.05 K, 4402 kPa	0.07633
371.05 K, 4408 kPa	0.07494
371.05 K, 4414 kPa	0.07363
371.05 K, 4420 kPa	0.07231
371.05 K, 4440 kPa	0.07105
371.05 K, 4485 kPa	0.06921
371.05 K, 4555 kPa	0.06855
371.05 K, 4560 kPa	0.06824
371.05 K, 4590 kPa	0.06782
371.05 K, 4715 kPa	0.06718
371.05 K, 4720 kPa	0.06705
371.05 K, 4840 kPa	0.06668
371.05 K, 5000 kPa	0.06707
371.05 K, 5200 kPa	0.06747
371.05 K, 5350 kPa	0.06773
371.05 K, 5672 kPa	0.06829
371.05 K, 6100 kPa	0.06917
371.05 K, 6200 kPa	0.06927
371.05 K, 6800 kPa	0.06996
371.05 K, 7500 kPa	0.07147
371.05 K, 8500 kPa	0.07339
371.05 K, 8900 kPa	0.07424
371.05 K, 9500 kPa	0.07498
371.05 K, 11600 kPa	0.07756
371.97 K, 3025 kPa	0.03301
371.97 K, 3070 kPa	0.03313
371.97 K, 3701 kPa	0.03655
371.97 K, 3803 kPa	0.03783
371.97 K, 4286 kPa	0.04983
371.97 K, 4294 kPa	0.05055
371.97 K, 4312 kPa	0.05267
371.97 K, 4324 kPa	0.05459
371.97 K, 4336 kPa	0.05724
371.97 K, 4342 kPa	0.05915
371.97 K, 4348 kPa	0.06124
371.97 K, 4354 kPa	0.06361
371.97 K, 4362 kPa	0.0676
371.97 K, 4366 kPa	0.07025
371.97 K, 4368 kPa	0.07149
371.97 K, 4370 kPa	0.07274
371.97 K, 4374 kPa	0.07488
371.97 K, 4378 kPa	0.07749
371.97 K, 4380 kPa	0.07923
371.97 K, 4382 kPa	0.07986
371.97 K, 4384 kPa	0.08174
371.97 K, 4386 kPa	0.08308
371.97 K, 4388 kPa	0.08481
371.97 K, 4390 kPa	0.08662
371.97 K, 4392 kPa	0.08774
371.97 K, 4394 kPa	0.08968
371.97 K, 4396 kPa	0.09177
371.97 K, 4398 kPa	0.09312
371.97 K, 4400 kPa	0.09429
371.97 K, 4402 kPa	0.09604
371.97 K, 4404 kPa	0.09739
371.97 K, 4406 kPa	0.09807
371.97 K, 4408 kPa	0.09854
371.97 K, 4410 kPa	0.09918
371.97 K, 4412 kPa	0.09961
371.97 K, 4414 kPa	0.09999
371.97 K, 4416 kPa	0.1001
371.97 K, 4418 kPa	0.1001
371.97 K, 4420 kPa	0.09965
371.97 K, 4425 kPa	0.09676
371.97 K, 4430 kPa	0.09369
371.97 K, 4435 kPa	0.09161
371.97 K, 4440 kPa	0.08782
371.97 K, 4445 kPa	0.08423
371.97 K, 4450 kPa	0.08092
371.97 K, 4455 kPa	0.07787
371.97 K, 4460 kPa	0.07642
371.97 K, 4465 kPa	0.07505
371.97 K, 4475 kPa	0.07322
371.97 K, 4490 kPa	0.07226
371.97 K, 4500 kPa	0.07021
371.97 K, 4505 kPa	0.06997
371.97 K, 4530 kPa	0.06877
371.97 K, 4550 kPa	0.06759
371.97 K, 4570 kPa	0.06665
371.97 K, 4650 kPa	0.06636
371.97 K, 4740 kPa	0.06618
371.97 K, 4850 kPa	0.06602
371.97 K, 5200 kPa	0.06643
371.97 K, 5900 kPa	0.06801
371.97 K, 6400 kPa	0.06923
371.97 K, 6800 kPa	0.07002
371.97 K, 7600 kPa	0.07152
371.97 K, 8810 kPa	0.07269
371.97 K, 15100 kPa	0.08067
373.2 K, 3103 kPa	0.03319
373.2 K, 3450 kPa	0.03488
373.2 K, 3780 kPa	0.03746
373.2 K, 3820 kPa	0.03788
373.2 K, 4030 kPa	0.04085
373.2 K, 4060 kPa	0.04149
373.2 K, 4150 kPa	0.04361
373.2 K, 4230 kPa	0.04611
373.2 K, 4270 kPa	0.04756
373.2 K, 4346 kPa	0.05156
373.2 K, 4384 kPa	0.05498
373.2 K, 4404 kPa	0.05788
373.2 K, 4416 kPa	0.05996
373.2 K, 4428 kPa	0.0626
373.2 K, 4436 kPa	0.06499
373.2 K, 4444 kPa	0.06754
373.2 K, 4450 kPa	0.06964
373.2 K, 4452 kPa	0.07037
373.2 K, 4462 kPa	0.07388
373.2 K, 4466 kPa	0.07545
373.2 K, 4470 kPa	0.07719
373.2 K, 4476 kPa	0.07958
373.2 K, 4482 kPa	0.08175
373.2 K, 4484 kPa	0.0824
373.2 K, 4486 kPa	0.08306
373.2 K, 4494 kPa	0.08512
373.2 K, 4496 kPa	0.08547
373.2 K, 4498 kPa	0.08584
373.2 K, 4500 kPa	0.0862
373.2 K, 4502 kPa	0.08638
373.2 K, 4504 kPa	0.08656
373.2 K, 4506 kPa	0.08685
373.2 K, 4508 kPa	0.08693
373.2 K, 4510 kPa	0.0873
373.2 K, 4518 kPa	0.08768
373.2 K, 4524 kPa	0.08658
373.2 K, 4530 kPa	0.08552
373.2 K, 4536 kPa	0.08417
373.2 K, 4544 kPa	0.08185
373.2 K, 4550 kPa	0.07994
373.2 K, 4556 kPa	0.07815
373.2 K, 4564 kPa	0.07643
373.2 K, 4568 kPa	0.07532
